According to US20220193255A1, “CHLORHEXIDINE SYSTEMS AND METHODS FOR OBTAINING SAME” (priority 2019, published 2022):

Columns and labels:
[1] = Chlorhexidine gluconate remaining after gamma irradiation, measured by HPLC; type: physicochemical; settings: for Chlorhexidine gluconate after irradiation, % / Preservation, %: initial CHD 0.075 wt %
Protocol: An aqueous solution of silver nitrate salt (as the source of silver) was prepared so that the final concentration of silver in the solution was 60 ppm. A 20 wt % aqueous solution of chlorhexidine gluconate (CHD) was added to make the resulting concentration of 0.05 wt %. Finally, isopropanol was added to achieve the concentration of 4 wt % in the resulting solution. The sample was a transparent colorless liquid. Thermo Scientific Evolution 220 Spectrophotometer was used to monitor the absorbance spectra of the sample, which is shown in FIG. 1 as the dashed line. The 30 ml sample solution was then subjected to irradiation by gamma rays at 7 kGy. The resulting solution was a transparent brownish liquid showing a clear peak of absorption at the wavelength 412.7 nm (solid line in FIG. 1), which corresponds to the presence of silver nanoparticles. The sample of the irradiated solution was presented for imaging to Transmission Electron Microscope (JEOL JEM 2100F) and an example of the image is shown in FIG. 2, which confirms formation of silver nanoparticles in the irradiated solution. The nanoparticles have quasi-spherical form and a visible conjugated layer around their surface. […]
Two identical samples were prepared as described in Example 1, each of them being colorless transparent aqueous solutions containing 60 ppm of silver in the form of silver nitrate, 0.5 wt % of polyvinyl alcohol, 4 wt % of isopropanol and 0.05 wt % of chlorhexidine gluconate. The samples were subjected to different doses of gamma irradiation—the first sample to 7 kGy and the second to 3 kGy. After irradiation the color of the samples changed to the transparent brown.
To evaluate any influence of the amount and the nature of the stabilizing agent, three different samples were prepared as described in Example 1. Each of them contained 30 ppm of silver in the form of silver nitrate and 0.05 wt % of chlorhexidine gluconate in an aqueous solution. The first sample additionally contained 0.5 wt % of polyvinyl alcohol (PVA) and 10 wt % of isopropanol, the second—2 wt % of polyvinyl alcohol and 10 wt % of isopropanol and the third sample additionally contained 1 wt % of polyvinylpyrrolidone (PVP) and 4 wt % of isopropanol. All three samples represented clear colorless liquids before irradiation. The irradiated at 10 kGy samples changed their color to the transparent brown color of different intensities. The concentration of chlorhexidine gluconate was measured using HPLC and determined as 0.015 wt % in the first and the second sample and 0.016 wt % in the third sample. The UV-vis spectra of all three samples show formation of silver nanoparticles, with the only difference that in the sample which contained PVP the nanoparticles are larger than in those which contained PVA (FIG. 5; the “shoulder” of the small dashed line indicates presence of nanoparticles larger than 100 nm).
To evaluate any difference caused by the initial amount of chlorhexidine gluconate, two samples were prepared as in Example 1, but one of them contained 0.05 wt % of chlorhexidine gluconate and another sample contained 0.075 wt % of chlorhexidine gluconate before irradiation. Both samples were irradiated at 7 kGy, by the action of which the nanoparticles of silver were formed in both samples.
To evaluate the influence of the amount of silver present in the form of a silver salt as a precursor for nanoparticles formation, three different samples were prepared as described in Example 1. Each of them contained 0.075 wt % of chlorhexidine gluconate, 0.5 wt % of polyvinyl alcohol and 4 wt % of isopropanol in an aqueous solution. Silver nitrate was added to each of the samples so that the concentration of silver in the samples was 15 ppm, 30 ppm and 60 ppm. All the samples were transparent colorless solutions. They were subjected to gamma irradiation at 7 kGy and the concentration of chlorhexidine gluconate was measured consequently using HPLC. […]

[2] = as above; type: physicochemical
[3] = Example 1: Ag 60 ppm (silver nitrate), initial CHD 0.05 wt %, isopropanol 4 wt %, gamma 7 kGy
[4] = Example 2: Ag 60 ppm, PVA 0.5 wt %, isopropanol 4 wt %, initial CHD 0.05 wt %, gamma 7 kGy
[5] = Example 4, first sample: initial CHD 0.05 wt %, silver nitrate, gamma 7 kGy
[6] = Example 4, second sample: initial CHD 0.075 wt %, silver nitrate, gamma 7 kGy
[7] = Example 5: Ag 15 ppm, PVA 0.5 wt %, isopropanol 4 wt %, gamma 7 kGy
[8] = Example 5: Ag 30 ppm, PVA 0.5 wt %, isopropanol 4 wt %, gamma 7 kGy
[9] = Example 5: Ag 60 ppm, PVA 0.5 wt %, isopropanol 4 wt %, gamma 7 kGy
[10] = Example 9: Au 30 ppm (chloroauric acid), isopropanol 4 wt %, initial CHD 0.05 wt %, gamma 3 kGy

- concentration of chlorhexidine gluconate in the irradiated solution [1, 3]: 0.0295 wt %
- rate of preservation compared to the initial level before irradiation [1, 3]: 59%
- rate of preservation ([1]; Example 2: Ag 60 ppm, PVA 0.5 wt %, isopropanol 4 wt %, initial CHD 0.05 wt %, gamma 3 kGy): 79%
- chlorhexidine gluconate after irradiation [1, 4]: 0.0294 wt %
- rate of preservation [1, 4]: 58.8%
- concentration of chlorhexidine gluconate after irradiation ([1]; Example 3, first sample: Ag 30 ppm, initial CHD 0.05 wt %, PVA 0.5 wt %, isopropanol 10 wt %, gamma 10 kGy): 0.015 wt %
- concentration of chlorhexidine gluconate after irradiation ([1]; Example 3, second sample: Ag 30 ppm, initial CHD 0.05 wt %, PVA 2 wt %, isopropanol 10 wt %, gamma 10 kGy): 0.015 wt %
- concentration of chlorhexidine gluconate after irradiation ([1]; Example 3, third sample: Ag 30 ppm, initial CHD 0.05 wt %, PVP 1 wt %, isopropanol 4 wt %, gamma 10 kGy): 0.016 wt %
- concentration of chlorhexidine gluconate after irradiation [1, 5]: 0.0294 wt %
- preservation rate [1, 5]: 58.8%
- concentration of chlorhexidine gluconate after irradiation [1, 6]: 0.052 wt %
- preservation rate [1, 6]: 69.3%
- Chlorhexidine gluconate after irradiation, % [1, 7]: 0.043%
- Preservation, % [1, 7]: 57.33%
- Chlorhexidine gluconate after irradiation, % [1, 8]: 0.049%
- Preservation, % [1, 8]: 65.33%
- Chlorhexidine gluconate after irradiation, % [1, 9]: 0.052%
- Preservation, % [1, 9]: 69.33%
- preservation [1, 10]: 51.6%
- presence of chlorhexidine in the irradiated sample ([2]; Example 8 (comparative): gold nanoparticles made chemically with ascorbic acid, CHD 0.05 wt % added afterwards, gamma 7 kGy): not detected
- chlorhexidine gluconate detected after irradiation [2, 10]: 0.0258 wt %
SMILES: [H]/N=C(\N/C(=N/[H])NCCCCCCNC(=N)NC(=N)Nc1ccc(Cl)cc1)Nc1ccc(Cl)cc1 [chlorhexidine gluconate]
